Test results as given in paper PMC5793121 (Toxins, 2018).
Where “and” joins values, the source holds several entries; their conditions need not be identical. Equal entries are not always repeated. No end group written: not given here.

Assays:
[1] = system: male and female ICR mice; assay type: in vivo, mouse; conditions: 0.15 mg/kg subcutaneously, n = 10
Experimental: Allergenicity of Az was studied in a delayed-type hypersensitivity test on male (20 animals) and female (20 animals) adult ICR mice. The mice were divided into four groups (two control and two experimental groups) of 10 animals (males or females) per group. Mice of the experimental groups were injected subcutaneously at the base of a tail with Az solution (0.15 mg/kg) emulsified in Freund’s complete adjuvant in a ratio of 1:1 (2 mL/kg). Similarly, the mice in the control groups were administered with a suspension of normal saline in Freund’s complete adjuvant. Five days later all animals received an injection of Az (0.15 mg/kg, 1.33 mL/kg) in the pad of the left hind paw. To estimate the intensity of the studied allergic reaction, 6, 12 and 24 h after the second Az injection the thickness of the left and right hind mouse paws was measured with a digital caliper.

[2] = system: male ICR mice; test: in vivo
Experimental: (§1) Az acute toxicity was estimated for its intravenous (iv) and intramuscular (im) administration to male ICR mice in a stepwise procedure.
(§2) For the iv route of administration, 20 mice were randomly divided in 5 groups of 4 animals each. The animals of each group received a single dose of Az (0.3, 0.4, 0.5, 0.6, or 0.7 mg/kg, respectively) injected into the lateral tail vein at a volume of 1 mL/kg. For the im route of administration, first two experimental groups of 3 animals each were formed. Az at doses of 0.75 and 1.0 mg/kg, respectively, was injected into the quadriceps muscle of the thigh (quadriceps femoris muscle) of two mouse hind limbs at a volume of 0.5 mL/kg to each muscle. Then, five experimental groups of 5 animals each were formed. Az was injected into the quadriceps muscle of the thigh (quadriceps femoris muscle) of the two hind limbs of male ICR mice at doses of 0.8, 0.775, 0.75, 0.725 and 0.7 mg/kg. The injection volume to each limb was 1 mL/kg. Further, neurotoxic manifestations were recorded in animals at 5, 10, 20, 30, 60 and 90 min and 24 h after administration using the functional observation battery, the number of death was counted as well.
(§3) For the iv and im route of administration, the median lethal dose (LD50) was calculated using a probit analysis. For the im route of administration, the maximum tolerated dose was determined.
(§4) Rocuronium was administered intramuscularly at doses of 0.13 mg/kg (n = 1), 0.1 mg/kg (n = 4) and 0.08 mg/kg (n = 4) in the triceps of the forelimbs of male ICR mice (8–9 weeks old). Control animals were injected with saline (n = 4). The volume of administration was 0.5 mL/kg in each limb.

[3] = in vivo; conditions: male, ICR, mouse, in vivo
Experimental: as §1, §2, §3, §4

[4] = system: GABAA (α1β3γ2 or α2β3γ2) receptors; conditions: concentration up to 100 μM; cited from earlier work
[5] = biological target: T1, human neuronal homopentameric α7 nAChR (Homo sapiens, UniProt P36544); test: Calcium imaging of ACh-evoked [Ca2+]i rise in Neuro2a cells expressing α7 nAChR; assay type: cell-based; conditions: 10 μM ACh (EC50); transfected Neuro2a cells, PNU120596 10 μM; 15 min preincubation; mean ± SEM, 4 independent experiments; read-out: IC50, inhibition of ACh-evoked calcium response of α7 nAChR
T1 construct: expressed in transfected cells; host or cells: mouse neuroblastoma Neuro2a, transient transfection (α7 nAChR-pCEP4) with human Ric-3 (Ric3-pCMV6-XL5, OriGene)
Experimental: Mouse neuroblastoma Neuro2a cells were purchased from the Russian collection of cell cultures (Institute of Cytology, Russian Academy of Sciences, Saint Petersburg, Russia). Cells were cultured in DMEM (Paneco, Moscow, Russia) supplemented with 10% FBS. They were sub-cultured the day before transfection and were plated at a density of 10,000 cells per well in a 96-well black plate. On the next day Neuro2a cells were transiently transfected with plasmids coding mouse muscle α1β1δε nAChR (pRBG4-vector) and a fluorescent calcium sensor Case12 (pCase12-cyto vector, Evrogen, Moscow, Russia) in a molar ratio of 2:1 following a lipofectamine transfection protocol (ThermoFisher Scientific, Waltham, MA, USA). […]
The plates were transferred to the multimodal microplate reader Hidex Sence (Hidex, Turku, Finland) where the cells were excited by light of 485 nm wavelength and emitted fluorescence was detected at 535 ± 10 nm. Fluorescence was recorded every 2 s for three minutes following agonist addition. Responses were measured as peak intensity minus basal fluorescence level and were expressed as a percentage of the maximal response obtained to agonist. Data files were analyzed using Hidex Sence software (Hidex, Turku, Finland) and OriginPro 7.5 software (OriginLab, Northampton, MA, USA, for statistical analysis).

T1 sequence (P36544 23-502): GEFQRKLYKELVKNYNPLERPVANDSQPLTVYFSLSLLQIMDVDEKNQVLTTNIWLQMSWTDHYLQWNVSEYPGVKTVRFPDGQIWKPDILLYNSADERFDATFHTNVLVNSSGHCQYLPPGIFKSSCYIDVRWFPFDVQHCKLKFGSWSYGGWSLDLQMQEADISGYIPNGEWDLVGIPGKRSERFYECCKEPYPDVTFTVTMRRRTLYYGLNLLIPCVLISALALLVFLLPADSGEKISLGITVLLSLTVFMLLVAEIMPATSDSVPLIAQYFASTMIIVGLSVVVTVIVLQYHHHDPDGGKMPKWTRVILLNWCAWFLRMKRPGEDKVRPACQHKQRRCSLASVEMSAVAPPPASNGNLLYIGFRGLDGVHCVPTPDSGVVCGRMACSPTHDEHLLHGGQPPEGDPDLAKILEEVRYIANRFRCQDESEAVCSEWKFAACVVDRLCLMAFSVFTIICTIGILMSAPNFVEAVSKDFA

## DNWWPKPPHQGPRPPRPRPKP-NH2 [Az, azemiopsin]
[1]
  allergic effect in the delayed-type hypersensitivity reaction test: no allergic effect
[2]; im 0.725 mg/kg
  time of death after administration: 19.7 ± 5.9 min
[2]; im 0.75 mg/kg
  time of death after administration: 28.8 ± 16.0 min
[2]; im 0.775 mg/kg
  time of death after administration: 15.8 ± 4.3 min
[2]; im 0.8 mg/kg
  time of death after administration: 12.2 ± 1.8 min
[2]; im dose of 0.3 mg/kg and lower (grip strength tests)
  toxicity signs: No toxicity signs
[2]; im, large doses
  time of appearance of visible toxic signs after administration: 5 to 7 min
  time of complete recovery from the toxic effect after administration: 24 h
[2]; intravenous administration, male ICR mice, probit analysis
  LD50: 0.51 ± 0.06 mg/kg
[3]; im
  LD50 at 24 h: 0.732 ± 0.13 mg/kg
  MTD at 24 h: 0.7 mg/kg
[3]; iv
  LD50 at 24 h: 0.51 mg/kg
[4]
  activity against GABAA receptors: no activity
[5]
  IC50: 2670 nM and ~3000 nM
